In patent US11414436B2, “Non-coordinating anion type activators containing cation having large alkyl groups” (ExxonMobil Chemical Patents Inc., priority 2018, dated 2022):
“And” between values parts separate entries of the source, which are not always exact repeats. Equal values may be shown once. One block for each compound: values may come before it.

Legend:
[1] = Ethylene-octene copolymerization in parallel pressure reactor, non-metallocene catalyst CAT-2; conditions: catalyst CAT-2 20 nmol; activator 1.1 equiv; 100° C.; 135 psi; 1-octene 100 uL; TNOAL 0.5 umol
Experimental: (§1) Solutions of the metal complexes and activators were prepared in a drybox using toluene or methylcyclohexane. Concentrations were typically 0.2 mmol/L. Tri-n-octylaluminum (TNOAL, neat, AkzoNobel) was typically used as a scavenger. Concentration of the TNOAL solution in toluene ranged from 0.5 to 2.0 mmol/L.
(§2) Polymerizations were carried out in a parallel pressure reactor, as generally described in U.S. Pat. Nos. 6,306,658; 6,455,316; 6,489,168; WO 00/09255; and Murphy, V. et al. (2003) “A Fully Integrated High-Throughput Screening Methodology for the Discovery of New Polyolefin Catalysts: Discovery of a New Class of High Temperature Single-Site Group (IV) Copolymerization Catalysts,” J. Am. Chem. Soc., v. 125, pp. 4306-4317, each of which is fully incorporated herein by reference. […] Although the specific quantities, temperatures, solvents, reactants, reactant ratios, pressures, and other variables are frequently changed from one polymerization run to the next, the following describes a typical polymerization performed in a parallel pressure reactor.
(§3) Ethylene-Octene Copolymerization (EO).
(§4) A pre-weighed glass vial insert and disposable stirring paddle were fitted to each reaction vessel of the reactor, which contains 48 individual reaction vessels. The reactor was then closed and purged with ethylene. Each vessel was charged with enough solvent (typically isohexane) to bring the total reaction volume, including the subsequent additions, to the desired volume, typically 5 mL. 1-octene, if required, was injected into the reaction vessel and the reactor was heated to the set temperature and pressurized to the predetermined pressure of ethylene, while stirring at 800 rpm. The aluminum compound (such as tri-n-octylaluminum) in toluene was then injected as scavenger followed by addition of the activator solution (typically 1.0-1.2 molar equivalents).
(§5) The catalyst (and activator solutions for Run A) were all prepared in toluene. The catalyst solution (typically 0.020-0.080 μmol of metal complex) was injected into the reaction vessel and the polymerization was allowed to proceed until a pre-determined amount of ethylene (quench value typically 20 psi) had been used up by the reaction. Alternatively, the reaction may be allowed to proceed for a set amount of time (maximum reaction time typically 30 minutes). Ethylene was added continuously (through the use of computer controlled solenoid valves) to the autoclaves during polymerization to maintain reactor gauge pressure (P setpt, +/−2 psig) and the reactor temperature (T) was monitored and typically maintained within +/−1° C. The reaction was quenched by pressurizing the vessel with compressed air. After the reactor was vented and cooled, the glass vial insert containing the polymer product and solvent was removed from the pressure cell and the inert atmosphere glove box, and the volatile components were removed using a Genevac HT-12 centrifuge and Genevac VC3000D vacuum evaporator operating at elevated temperature and reduced pressure. The vial was then weighed to determine the yield of the polymer product. The resultant polymer was analyzed by Rapid GPC (see below) to determine the molecular weight, by FT-IR (see below) to determine percent octene incorporation, and by DSC (see below) to determine melting point (Tm).
(§6) Equivalence is determined based on the mole equivalents relative to the moles of the transition metal in the catalyst complex.
(§7) Activators of the present disclosure can also be used for activating non-metallocene catalysts for polymerization of olefins. Table 4 illustrates copolymerization of ethylene and octene using activators of the present disclosure and non-metallocene catalysts (CAT-1, CAT-2, CAT-3, and CAT-4).

[2] = Propylene homopolymerization in parallel pressure reactor, MCN-1 with ammonium borate activators; conditions: for activity: isohexane
Excerpt: Polymerization in Parallel Pressure Reactor
Solvents, polymerization-grade toluene, and isohexane were supplied by ExxonMobil Chemical Company and purified by passing through a series of columns: two 500 cc Oxyclear cylinders in series from Labclear (Oakland, Calif.), followed by two 500 cc columns in series packed with dried 3 Å mole sieves (8-12 mesh; Aldrich Chemical Company), and two 500 cc columns in series packed with dried 5 Å mole sieves (8-12 mesh; Aldrich Chemical Company). 1-octene (C8) and 1-hexene (C6) (98%, Aldrich Chemical Company) were dried by stirring over NaK overnight followed by filtration through basic alumina (Aldrich Chemical Company, Brockman Basic 1).
as §1, §2
Catalyst systems dissolved in solution were used in the polymerization examples below, unless specified otherwise.
RUN A: Propylene Homopolymerization (PP).
The reactor was prepared as described above and purged with propylene. For the examples in Table 2, the catalyst and activator solutions were prepared in toluene. […] Isohexane was then injected into each vessel at room temperature followed by a predetermined amount of propylene gas. The reactor was heated to the set temperature while stirring at 800 rpm, and the scavenger, activator and catalyst solutions were injected sequentially to each vessel. The polymerization was allowed to proceed as described previously.
A series of propylene polymerizations were performed in parallel pressure reactors (PPRs) developed by Symyx Technologies, Inc. In these polymerizations, the metallocene rac-dimethylsilyl-bis(indenyl)hafnium dimethyl (MCN-1) was used along with several different ammonium borate activators. Polymerizations were performed at 85° C. and 100° C.
Propylene homopolymerization (PP).
A series of propylene polymerizations were performed in the parallel pressure reactor similar to the procedure described above. In these studies rac-dimethylsilyl-bis(indenyl)hafnium dimethyl (MCN-1) was used along with ammonium borate activators.

[3] = Ethylene-octene copolymerization in parallel pressure reactor, non-metallocene catalyst CAT-4; conditions: catalyst CAT-4 20 nmol; activator 1.1 equiv; 100° C.; 135 psi; 1-octene 100 uL; TNOAL 0.5 umol
Experimental: as §1, §2, §3, §4, §5, §6, §7

[4] = Ethylene-octene copolymerization in parallel pressure reactor, non-metallocene catalyst CAT-1; conditions: catalyst CAT-1 20 nmol; activator 1.1 equiv; 100° C.; 135 psi; 1-octene 100 uL; TNOAL 0.5 umol
Experimental: as §1, §2, §3, §4, §5, §6, §7

[5] = Ethylene-octene copolymerization in parallel pressure reactor, non-metallocene catalyst CAT-3; conditions: catalyst CAT-3 20 nmol; activator 1.1 equiv; 100° C.; 135 psi; 1-octene 100 uL; TNOAL 0.5 umol
Experimental: as §1, §2, §3, §4, §5, §6, §7

[6] = Solubility studies of the activators (saturated solution in isohexane or methylcyclohexane); assay type: physicochemical; conditions: for Solubility limit in i-hexane (mM at 25° C.) / Solubility limit in i-hexane (wt % at 25° C.): isohexane; for Solubility limit in MeCy (mM at 25° C.): methylcyclohexane
Experimental: Solubility Studies of the Activators
Procedure for Solid Activators.
A saturated solution of each of the solid ammonium borate activators was prepared by stirring an excess of the activator with either isohexane or methylcyclohexane solvent for several hours at 25° C. The mixture was then filtered and a known volume of the filtrate was evaporated to dryness in a tared vial. The vial was then weighed to determine the mass of activator that was dissolved in the aliquot. The concentration of the saturated solution is presented in millimoles of activator per liter of solution (mM).
Procedure for Activators that Form Emulsions.
A saturated solution of the activator was prepared by slowly adding the solvent to a pre-weighed amount of the activator. The final volume was determined as the minimum amount of solvent required to convert the emulsion into a homogeneous solution. The concentration of the saturated solution is presented in millimoles of activator per liter of solution (mM). Alternatively, an emulsion of the activator was prepared by adding the solvent to an excess amount of activator. The resulting emulsion was separated from the undissolved solids by decanting the emulsion into a tared vial. Solvent was then added dropwise until the emulsion became homogeneous. The mass of the final solution was measured and then the solvent was evaporated to dryness to obtain the mass of the activator. The concentration of the saturated solution is presented in millimoles of activator per liter of solution (mM).

[7] = as above; assay type: physicochemical; conditions: methylcyclohexane
[8] = propylene, 100 °C, 150 psi, MCN-1 = 20 nmol, activator = 20 nmol, TNOAL 500 nmol

Compound: Di(hydrogenated tallow)methylamine-BF20 [M2HTH-BF20]
activity [1]: 806 kg/mmol/h and 755 kg/mmol/h | activity [2, 8]: 46 kg/mmol/h and 30 kg/mmol/h and 36 kg/mmol/h | activity [3]: 51 kg/mmol/h and 63 kg/mmol/h | activity [4]: 2030 kg/mmol/h and 2214 kg/mmol/h | activity [5]: 711 kg/mmol/h and 786 kg/mmol/h

Compound: Di(hydrogenated tallow)methylamine-BF28 [M2HTH-BF28]
activity [1]: 620 kg/mmol/h and 352 kg/mmol/h | activity ([2]; Activator Equiv 1.0, TNOAL 0.25 umol, MCN-1 30 nmol, 85° C., propylene 135 psi): 187 kg/mmol/h and 167 kg/mmol/h and 160 kg/mmol/h | activity ([2]; Activator Equiv 1.0, TNOAL 0.50 umol, MCN-1 30 nmol, 85° C., propylene 135 psi): 151 kg/mmol/h and 113 kg/mmol/h and 118 kg/mmol/h | activity ([2]; Activator Equiv 1.0, TNOAL 0.75 umol, MCN-1 30 nmol, 85° C., propylene 135 psi): 102 kg/mmol/h and 95 kg/mmol/h | activity ([2]; Activator Equiv 1.2, TNOAL 0.25 umol, MCN-1 30 nmol, 85° C., propylene 135 psi): 203 kg/mmol/h and 195 kg/mmol/h and 166 kg/mmol/h | activity ([2]; Activator Equiv 1.2, TNOAL 0.50 umol, MCN-1 30 nmol, 85° C., propylene 135 psi): 169 kg/mmol/h and 153 kg/mmol/h | activity ([2]; Activator Equiv 1.2, TNOAL 0.75 umol, MCN-1 30 nmol, 85° C., propylene 135 psi): 119 kg/mmol/h and 104 kg/mmol/h | activity ([2]; Activator Equiv 1.4, TNOAL 0.25 umol, MCN-1 30 nmol, 85° C., propylene 135 psi): 204 kg/mmol/h and 196 kg/mmol/h and 178 kg/mmol/h | activity ([2]; Activator Equiv 1.4, TNOAL 0.50 umol, MCN-1 30 nmol, 85° C., propylene 135 psi): 157 kg/mmol/h and 142 kg/mmol/h | activity ([2]; Activator Equiv 1.4, TNOAL 0.75 umol, MCN-1 30 nmol, 85° C., propylene 135 psi): 127 kg/mmol/h and 103 kg/mmol/h | activity ([2]; Activator Equiv 1.6, TNOAL 0.25 umol, MCN-1 30 nmol, 85° C., propylene 135 psi): 229 kg/mmol/h and 203 kg/mmol/h and 180 kg/mmol/h | activity ([2]; Activator Equiv 1.6, TNOAL 0.50 umol, MCN-1 30 nmol, 85° C., propylene 135 psi): 168 kg/mmol/h and 144 kg/mmol/h | activity ([2]; Activator Equiv 1.6, TNOAL 0.75 umol, MCN-1 30 nmol, 85° C., propylene 135 psi): 129 kg/mmol/h and 117 kg/mmol/h | average catalyst activity, comparison of the four activators (FIG. 6) ([2]; MCN-1, polypropylene at 100° C., Table 7 runs): much lower activity | activity ([2]; propylene, 85 °C, 135 psi, MCN-1 = 20 nmol, activator = 20 nmol, TNOAL 500 nmol): 75 kg/mmol/h and 55 kg/mmol/h | activity [2, 8]: 49 kg/mmol/h and 60 kg/mmol/h and 96 kg/mmol/h | activity [3]: 48 kg/mmol/h and 65 kg/mmol/h | activity [4]: 2494 kg/mmol/h and 1709 kg/mmol/h | activity [5]: 825 kg/mmol/h and 863 kg/mmol/h

Solubility limit in i-hexane (mM at 25° C.) [6]: 2.0 mM | Solubility limit in i-hexane (wt % at 25° C.) [6]: 0.32 wt % | Solubility limit in MeCy (mM at 25° C.) [6]: 21 mM | Solubility limit in MeCy (wt % at 25° C.) [7]: 3.0 wt %
Compound: CCCCCCCCCC[NH+](CCCCCCCCCC)c1ccc(CCCC)cc1.Fc1c(F)c(F)c([B-](c2c(F)c(F)c(F)c(F)c2F)(c2c(F)c(F)c(F)c(F)c2F)c2c(F)c(F)c(F)c(F)c2F)c(F)c1F [DDBAH-BF20, 4-butyl-N,N-didecylbenzenaminium-BF20]

Solubility limit in i-hexane (mM at 25° C.) [6]: 2.2 mM | Solubility limit in i-hexane (wt % at 25° C.) [6]: 0.47 wt % | Solubility limit in MeCy (mM at 25° C.) [6]: 17 mM | Solubility limit in MeCy (wt % at 25° C.) [7]: 3.3 wt %
Compound: CCCCCCCCCC[NH+](CCCCCCCCCC)c1ccc(CCCC)cc1.Fc1c(F)c(F)c2c(F)c([B-](c3c(F)c(F)c4c(F)c(F)c(F)c(F)c4c3F)(c3c(F)c(F)c4c(F)c(F)c(F)c(F)c4c3F)c3c(F)c(F)c4c(F)c(F)c(F)c(F)c4c3F)c(F)c(F)c2c1F [DDBAH-BF28, 4-butyl-N,N-didecylbenzenaminium-BF28]

Solubility limit in i-hexane (mM at 25° C.) [6]: 1.3 mM | Solubility limit in i-hexane (wt % at 25° C.) [6]: 0.18 wt % | Solubility limit in MeCy (mM at 25° C.) [6]: 1.4 mM | Solubility limit in MeCy (wt % at 25° C.) [7]: 0.17 wt %
Compound: CCCCCCCCCC[NH+](C)c1ccccc1.Fc1c(F)c(F)c([B-](c2c(F)c(F)c(F)c(F)c2F)(c2c(F)c(F)c(F)c(F)c2F)c2c(F)c(F)c(F)c(F)c2F)c(F)c1F [MDAH-BF20, N-decyl-N-methylanilinium-BF20]

Solubility limit in i-hexane (mM at 25° C.) [6]: 0.9 mM | Solubility limit in i-hexane (wt % at 25° C.) [6]: 0.12 wt % | Solubility limit in MeCy (mM at 25° C.) [6]: 1.7 mM | Solubility limit in MeCy (wt % at 25° C.) [7]: 0.21 wt %
Compound: CCCCCCCCCC[NH+](C)c1ccccc1.Fc1c(F)c(F)c2c(F)c([B-](c3c(F)c(F)c4c(F)c(F)c(F)c(F)c4c3F)(c3c(F)c(F)c4c(F)c(F)c(F)c(F)c4c3F)c3c(F)c(F)c4c(F)c(F)c(F)c(F)c4c3F)c(F)c(F)c2c1F [MDAH-BF28, N-decyl-N-methylanilinium-BF28]

Solubility limit in i-hexane (mM at 25° C.) [6]: <0.1 mM | Solubility limit in i-hexane (wt % at 25° C.) [6]: <0.1 wt % | Solubility limit in MeCy (mM at 25° C.) [6]: 1.9 mM | Solubility limit in MeCy (wt % at 25° C.) [7]: 0.3 wt %
Compound: CCCCCCCCCCCCCCCCCCc1ccc([NH+](C)C)cc1.Fc1c(F)c(F)c2c(F)c([B-](c3c(F)c(F)c4c(F)c(F)c(F)c(F)c4c3F)(c3c(F)c(F)c4c(F)c(F)c(F)c(F)c4c3F)c3c(F)c(F)c4c(F)c(F)c(F)c(F)c4c3F)c(F)c(F)c2c1F [OdDMAH-BF28, N,N-dimethyl-4-octadecylbenzenaminium-BF28]
